The target in one series is HSV polymerase (Human herpesvirus 1, UniProt P04293). As to the kind of experiment: HSV polymerase assay (Table 1). In kind it is biochemical.
The next series addresses VZV polymerase (Varicella-zoster virus, UniProt P09252). Put plainly: VZV polymerase assay (Table 1). In kind it is biochemical.
Another series deals with T1, HCMV polymerase (Human cytomegalovirus, UniProt P08546).
T1 construct: made in house; host or cells: recombinant baculovirus-infected SF-9 cells
As to the kind of experiment: HCMV polymerase scintillation proximity assay (SPA). In kind it is biochemical. On the procedure: The HCMV polymerase assay is performed using a scintillation proximity assay (SPA) as described in several references, such as N. D. Cook, et al., Pharmaceutical Manufacturing International, pages 49-53 (1992); K Takeuchi, Laboratory Practice, September issue (1992); U.S. Pat. No. 4,568,649 (1986); which are incorporated by reference herein. Reactions are performed in 96-well plates. The assay is conducted in 100 μl volume with 5.4 mM HEPES (pH 7.5), 11.7 mM KCl, 4.5 mM MgCl2, 0.36 mg/ml BSA, and 90 nM ^3H-dTTP. Assays are run with and without CHAPS, (3-[(3-Cholamidopropyl)-dimethylammonio]-1-propane-sulfonate) at a final concentration of 2 mM. HCMV polymerase is diluted in enzyme dilution buffer containing 50% glycerol, 250 mM NaCl, 10 mM HEPES (pH 7.5), 100 μg/ml BSA, and 0.01% sodium azide. The HCMV polymerase, which is expressed in, recombinant baculovirus-infected SF-9 cells and purified according to literature procedures, is added at 10% (or 10 μl) of the final reaction volume, i.e., 100 μl. Compounds are diluted in 50% DMSO and 10 μl are added to each well. Control wells contain an equivalent concentration of DMSO. Unless noted otherwise, reactions are initiated via the addition of 6 nM biotinylated poly(dA)-oligo(dT) template/primer to reaction mixtures containing the enzyme, substrate, and compounds of interest. Plates are incubated in a 25° C. or 37° C. H2O bath and terminated via the addition of 40 μl/reaction of 0.5 M EDTA (pH 8) per well. Reactions are terminated within the time-frame during which substrate incorporation is linear and varied depending upon the enzyme and conditions used, i.e., 30 min. for HCMV polymerase. Ten (10) 10 μL of streptavidin-SPA beads (20 mg/ml in PBS/10% glycerol) are added following termination of the reaction. Plates are incubated 10 min. at 37° C., then equilibrated to room temperature, and counted on a Packard Topcount. Linear regressions are performed and IC50's are calculated using computer software.
A modified version of the above HCMV polymerase assay is performed as described above, but with the following changes: Compounds are diluted in 100% DMSO until final dilution into assay buffer. In the previous assay, compounds are diluted in 50% DMSO. 4.5 mM Dithiothreitol (DTT) is added to the polymerase buffer.
All results are listed as Polymerase IC50 ([…]) values. In Table 1, the term “n.d.” refers to activity data not determined.
(In a scintillation proximity assay essentially only radioactivity close to the scintillant gives light.)

[1] abbreviates: HCMV polymerase, SPA, read-out: Polymerase IC50 HCMV.

Experimental findings from patent publication US20040110787A1, “Heteroaryl-ethanolamine derivatives as antiviral agents” (priority 2002, published 2004) are described below.

Read-outs that look alike come from different tables or passages of the source.

Chain of HSV polymerase (P04293 whole entry): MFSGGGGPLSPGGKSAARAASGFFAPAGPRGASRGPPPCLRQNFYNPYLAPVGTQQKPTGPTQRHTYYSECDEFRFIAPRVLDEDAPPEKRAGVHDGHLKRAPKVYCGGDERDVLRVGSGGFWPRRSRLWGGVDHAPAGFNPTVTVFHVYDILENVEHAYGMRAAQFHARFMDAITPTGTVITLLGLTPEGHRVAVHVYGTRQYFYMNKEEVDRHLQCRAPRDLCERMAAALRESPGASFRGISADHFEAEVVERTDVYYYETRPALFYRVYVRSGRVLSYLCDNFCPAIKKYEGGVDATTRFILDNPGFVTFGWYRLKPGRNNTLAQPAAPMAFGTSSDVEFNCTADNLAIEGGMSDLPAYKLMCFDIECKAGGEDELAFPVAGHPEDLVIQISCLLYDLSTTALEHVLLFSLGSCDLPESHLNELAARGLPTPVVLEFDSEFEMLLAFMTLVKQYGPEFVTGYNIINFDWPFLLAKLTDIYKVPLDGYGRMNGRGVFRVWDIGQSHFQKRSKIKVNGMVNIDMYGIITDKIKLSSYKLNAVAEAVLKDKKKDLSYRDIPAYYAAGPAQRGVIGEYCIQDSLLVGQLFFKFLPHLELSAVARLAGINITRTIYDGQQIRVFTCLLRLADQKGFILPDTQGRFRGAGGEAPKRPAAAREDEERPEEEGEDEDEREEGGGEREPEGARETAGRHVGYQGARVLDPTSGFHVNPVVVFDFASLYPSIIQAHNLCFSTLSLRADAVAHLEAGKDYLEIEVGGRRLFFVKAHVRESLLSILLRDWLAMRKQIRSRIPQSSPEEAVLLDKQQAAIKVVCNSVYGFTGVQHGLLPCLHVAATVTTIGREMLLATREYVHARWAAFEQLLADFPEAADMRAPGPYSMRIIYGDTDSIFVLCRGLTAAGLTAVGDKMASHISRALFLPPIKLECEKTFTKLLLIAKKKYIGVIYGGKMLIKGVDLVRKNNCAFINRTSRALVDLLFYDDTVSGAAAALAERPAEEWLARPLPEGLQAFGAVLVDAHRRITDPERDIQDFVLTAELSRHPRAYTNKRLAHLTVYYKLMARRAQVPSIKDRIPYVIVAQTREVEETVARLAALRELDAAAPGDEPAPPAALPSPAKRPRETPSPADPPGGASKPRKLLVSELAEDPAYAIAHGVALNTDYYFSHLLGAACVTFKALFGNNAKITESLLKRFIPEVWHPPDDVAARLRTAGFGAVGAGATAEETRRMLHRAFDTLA
Chain of VZV polymerase (P09252 whole entry): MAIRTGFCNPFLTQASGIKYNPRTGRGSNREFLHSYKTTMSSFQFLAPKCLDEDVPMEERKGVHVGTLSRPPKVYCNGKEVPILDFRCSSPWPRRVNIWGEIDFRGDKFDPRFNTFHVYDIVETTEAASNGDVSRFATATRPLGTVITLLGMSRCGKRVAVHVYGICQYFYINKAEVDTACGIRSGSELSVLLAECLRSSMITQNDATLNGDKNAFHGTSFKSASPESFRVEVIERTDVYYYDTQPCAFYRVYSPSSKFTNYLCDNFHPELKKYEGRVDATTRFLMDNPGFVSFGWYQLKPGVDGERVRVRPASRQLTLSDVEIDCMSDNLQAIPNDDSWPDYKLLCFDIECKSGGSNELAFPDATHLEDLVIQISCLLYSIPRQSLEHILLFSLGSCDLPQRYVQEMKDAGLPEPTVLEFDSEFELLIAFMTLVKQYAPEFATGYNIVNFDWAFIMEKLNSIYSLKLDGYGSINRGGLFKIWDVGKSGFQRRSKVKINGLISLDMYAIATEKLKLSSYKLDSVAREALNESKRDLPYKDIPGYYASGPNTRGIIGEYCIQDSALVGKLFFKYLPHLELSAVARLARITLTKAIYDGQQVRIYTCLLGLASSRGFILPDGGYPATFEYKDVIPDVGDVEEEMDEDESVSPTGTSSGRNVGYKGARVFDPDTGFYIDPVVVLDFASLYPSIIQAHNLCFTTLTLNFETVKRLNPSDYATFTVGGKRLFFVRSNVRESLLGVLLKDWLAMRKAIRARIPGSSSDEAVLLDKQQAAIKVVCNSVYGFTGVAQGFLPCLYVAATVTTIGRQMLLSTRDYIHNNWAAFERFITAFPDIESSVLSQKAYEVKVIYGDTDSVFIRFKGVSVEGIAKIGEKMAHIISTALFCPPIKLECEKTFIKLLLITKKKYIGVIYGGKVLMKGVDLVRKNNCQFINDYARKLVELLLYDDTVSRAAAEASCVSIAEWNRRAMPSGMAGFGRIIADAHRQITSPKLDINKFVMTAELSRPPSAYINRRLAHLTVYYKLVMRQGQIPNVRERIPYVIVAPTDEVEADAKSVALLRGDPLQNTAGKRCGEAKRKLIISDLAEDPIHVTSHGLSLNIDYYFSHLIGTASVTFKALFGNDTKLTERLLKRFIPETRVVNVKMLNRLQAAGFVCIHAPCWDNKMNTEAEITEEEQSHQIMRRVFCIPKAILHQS
T1 sequence (P08546 whole entry): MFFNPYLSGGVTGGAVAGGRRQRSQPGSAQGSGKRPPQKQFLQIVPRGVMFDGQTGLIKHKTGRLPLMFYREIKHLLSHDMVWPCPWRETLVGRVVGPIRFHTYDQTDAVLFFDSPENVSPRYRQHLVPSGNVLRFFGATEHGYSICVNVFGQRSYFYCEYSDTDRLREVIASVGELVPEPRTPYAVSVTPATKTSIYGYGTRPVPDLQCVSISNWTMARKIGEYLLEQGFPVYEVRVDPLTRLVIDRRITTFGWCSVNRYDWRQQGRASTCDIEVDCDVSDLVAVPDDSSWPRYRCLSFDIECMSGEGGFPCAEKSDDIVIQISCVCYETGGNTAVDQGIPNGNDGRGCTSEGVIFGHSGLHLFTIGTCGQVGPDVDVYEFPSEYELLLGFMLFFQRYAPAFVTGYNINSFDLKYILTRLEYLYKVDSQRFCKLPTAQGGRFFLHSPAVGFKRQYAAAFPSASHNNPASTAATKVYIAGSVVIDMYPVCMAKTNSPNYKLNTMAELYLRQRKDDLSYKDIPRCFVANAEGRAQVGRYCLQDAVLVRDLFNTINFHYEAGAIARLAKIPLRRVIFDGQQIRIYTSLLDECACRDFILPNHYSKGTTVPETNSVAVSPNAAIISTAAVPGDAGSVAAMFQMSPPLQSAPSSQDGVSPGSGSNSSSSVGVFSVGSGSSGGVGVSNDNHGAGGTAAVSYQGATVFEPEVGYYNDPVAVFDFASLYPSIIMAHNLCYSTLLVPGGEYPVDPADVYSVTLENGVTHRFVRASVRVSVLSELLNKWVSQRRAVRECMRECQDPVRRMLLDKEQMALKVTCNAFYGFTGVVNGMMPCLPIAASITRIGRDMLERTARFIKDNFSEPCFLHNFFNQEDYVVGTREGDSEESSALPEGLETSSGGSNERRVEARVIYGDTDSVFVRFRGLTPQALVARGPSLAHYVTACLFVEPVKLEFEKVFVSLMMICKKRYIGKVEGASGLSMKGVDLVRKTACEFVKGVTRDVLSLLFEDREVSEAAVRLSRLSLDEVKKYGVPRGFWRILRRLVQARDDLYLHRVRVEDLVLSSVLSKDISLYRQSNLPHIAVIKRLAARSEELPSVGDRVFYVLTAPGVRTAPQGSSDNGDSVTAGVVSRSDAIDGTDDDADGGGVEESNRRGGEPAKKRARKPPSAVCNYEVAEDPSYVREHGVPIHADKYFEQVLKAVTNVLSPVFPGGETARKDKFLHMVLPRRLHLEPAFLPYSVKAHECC

Broadly, the IC50 is the concentration that gives 50% inhibition. As usually defined, the melting point is the temperature of the solid-liquid transition. Turning to `CN(Cc1cc2c(=O)c(C(=O)NCc3ccc(Cl)cc3)cn(C)c2s1)CC(O)c1cccnc1` (racemic) [Example 1, rac-N-(4-Chlorobenzyl)-2-(((2-hydroxy-2-pyridin-3-ylethyl)(methyl)amino)methyl)-7-methyl-4-oxo-4,7-dihydrothieno[2,3-b]pyridine-5-carboxamide], the melting point lay in the range of 160 to 162 °C. This compound came in with a concentration for half-maximal inhibition (IC50) against HSV polymerase of 0.58 µM. Moreover, the IC50 against VZV polymerase came to 0.22 µM. The IC50 on HCMV polymerase (setting [1]) was found to be 0.16 µM.
The corresponding values for `CN(Cc1cc2c(=O)c(C(=O)NCc3ccc(Cl)cc3)cn(C)c2s1)CC(O)c1ccncc1` (racemic) [Example 3, rac-N-(4-Chlorobenzyl)-2-(((2-hydroxy-2-pyridin-4-ylethyl)(methyl)amino)methyl)-7-methyl-4-oxo-4,7-dihydrothieno[2,3-b]pyridine-5-carboxamide] are 185 to 188 °C, 0.47 µM, 0.22 µM and 0.2 µM.
`CN(Cc1cc2c(=O)c(C(=O)NCc3ccc(Cl)cc3)cn(C)c2s1)CC(O)c1ccccn1` (racemic) [Example 4, rac-N-(4-Chlorobenzyl)-2-(((2-hydroxy-2-pyridin-2-ylethyl)(methyl)amino)methyl)-7-methyl-4-oxo-4,7-dihydrothieno[2,3-b]pyridine-5-carboxamide] gave a melting point of 145 to 147 °C. The compound also had a half-maximal inhibitory concentration (IC50) on HSV polymerase of 0.1 µM. This compound yielded a half-maximal inhibitory concentration (IC50) against VZV polymerase of 0.03 µM. The IC50 at HCMV polymerase (setting [1]) stood at 0.09 µM.
Regarding `Cc1cccc(C(O)CN(C)Cc2cc3c(=O)c(C(=O)NCc4ccc(Cl)cc4)cn(C)c3s2)n1` (racemic) [Example 6, rac-N-(4-Chlorobenzyl)-2-(((2-hydroxy-2-(6-methylpyridin-2-yl)ethyl)(methyl)amino)methyl)-7-methyl-4-oxo-4,7-dihydrothieno[2,3-b]pyridine-5-carboxamide], the melting point is 158 to 162 °C. The concentration for half-maximal inhibition (IC50) on HCMV polymerase (setting [1]) was found to be 0.62 µM.
Turning to `CN(Cc1cc2c(=O)c(C(=O)NCc3ccc(Cl)cc3)cn(C)c2s1)CC(O)c1cnccn1` (racemic) [Example 10, rac-N-(4-Chlorobenzyl)-2-(((2-hydroxy-2-pyrazin-2-ylethyl)(methyl)amino)methyl)-7-methyl-4-oxo-4,7-dihydrothieno[2,3-b]pyridine-5-carboxamide], the IC50 against HSV polymerase came to 0.1 µM; against VZV polymerase, 0.05 µM; on HCMV polymerase (setting [1]), 0.11 µM.
On to `CCCn1cc(C(=O)NCc2ccc(Cl)cc2)c(=O)c2cc(CN(C)CC(O)c3ccccn3)sc21` (racemic) [Example 15, rac-N-(4-Chlorobenzyl)-7-propyl-2-(((2-hydroxy-2-pyridin-2-ylethyl)(methyl)amino)methyl)-4-oxo-4,7-dihydrothieno[2,3-b]pyridine-5-carboxamide], for which, at HCMV polymerase (setting [1]), the IC50 is 1.07 µM.
Turning to `CCCn1cc(C(=O)NCc2ccc(Cl)cc2)c(=O)c2cc(CN(C)CC(O)c3cnccn3)sc21` (racemic) [Example 16, rac-N-(4-Chlorobenzyl)-2-(((2-hydroxy-2-pyrazin-2-ylethyl)(methyl)amino)methyl)-4-oxo-7-propyl-4,7-dihydrothieno[2,3-b]pyridine-5-carboxamide], the IC50 against HSV polymerase came out at 1.09 µM; on VZV polymerase, 0.21 µM; on HCMV polymerase (setting [1]), 0.31 µM.
`CN(Cc1cc2c(=O)c(C(=O)NCc3ccc(Cl)cc3)cn(CCCO)c2s1)CC(O)c1ncccn1` (racemic) [Example 19, rac-N-(4-Chlorobenzyl)-7-(3-hydroxypropyl)-2-(((2-hydroxy-2-pyrimidin-2-ylethyl)(methyl)amino)methyl)-4-oxo-4,7-dihydrothieno[2,3-b]pyridine-5-carboxamide] yielded an IC50 against HCMV polymerase of 1.12 µM.
For `COCCn1cc(C(=O)NCc2ccc(Cl)cc2)c(=O)c2cc(CN(C)CC(O)c3cnccn3)sc21` (racemic) [Example 21, rac-N-(4-Chlorobenzyl)-2-(((2-hydroxy-2-pyrazin-2-ylethyl)(methyl)amino)methyl)-7-(2-methoxyethyl)-4-oxo-4,7-dihydrothieno[2,3-b]pyridine-5-carboxamide], the melting point fell in the range of 122 to 123 °C. At HCMV polymerase (setting [1]), the IC50 is 1.03 µM.
On to `CN(Cc1cc2c(=O)c(C(=O)NCc3ccc(Cl)cc3)cn(C)c2s1)C[C@@H](O)c1ncccn1` [Example 9], for which the half-inhibitory concentration (IC50) on HSV polymerase amounted to 0.13 µM; against VZV polymerase, 0.03 µM; at HCMV polymerase (setting [1]), 0.05 µM.
For `CN(Cc1cc2c(=O)c(C(=O)NCc3ccc(Cl)cc3)cn(C)c2s1)C[C@@H](O)c1cnccn1` [Example 11, N-(4-Chlorobenzyl)-2-((((2R)-2-hydroxy-2-pyrazin-2-ylethyl)(methyl)amino)methyl)-7-methyl-4-oxo-4,7-dihydrothieno[2,3-b]pyridine-5-carboxamide] the same measures were 0.08 µM, 0.02 µM and 0.04 µM.
The corresponding values for `CN(Cc1cc2c(=O)c(C(=O)NCc3ccc(Cl)cc3)cn(C)c2s1)CC(O)c1cccnn1` (stereo not drawn) [Example 12] are 0.84 µM, 0.23 µM and 0.31 µM.
For `CN(Cc1cc2c(=O)c(C(=O)NCc3ccc(Cl)cc3)cn(CC(O)CO)c2s1)C[C@@H](O)c1ccccn1` (stereo partly drawn) [Example 17, N-(4-Chlorobenzyl)-7-(2,3-dihydroxypropyl)-2-((((2R)-2-hydroxy-2-pyridin-2-ylethyl)(methyl)amino)methyl)-4-oxo-4,7-dihydrothieno[2,3-b]pyridine-5-carboxamide], on HCMV polymerase (setting [1]), the IC50 was found to be 2.19 µM.
For `CN(Cc1cc2c(=O)c(C(=O)NCc3ccc(Cl)cc3)cn(CCCO)c2s1)C[C@@H](O)c1ccccn1` [Example 18, N-(4-Chlorobenzyl)-7-(3-hydroxypropyl)-2-((((2R)-2-hydroxy-2-pyridin-2-ylethyl)(methyl)amino)methyl)-4-oxo-4,7-dihydrothieno[2,3-b]pyridine-5-carboxamide], it took 1.3 µM to reach half-maximal inhibition on HCMV polymerase (IC50).
As for `CN(Cc1cc2c(=O)c(C(=O)NCc3ccc(Cl)cc3)cn(CCO)c2s1)C[C@@H](O)c1ccccn1` [Example 20, N-(4-Chlorobenzyl)-7-(2-hydroxyethyl)-2-((((2R)-2-hydroxy-2-pyridin-2-ylethyl)(methyl)amino)methyl)-4-oxo-4,7-dihydrothieno[2,3-b]pyridine-5-carboxamide], the concentration for half-maximal inhibition (IC50) at HCMV polymerase (setting [1]) is 1.16 µM.
On the same count and under the same terms, with `CN(Cc1cc2c(=O)c(C(=O)NCc3ccc(Cl)cc3)cn(CCOCCO)c2s1)C[C@@H](O)c1cnccn1` [Example 22] the figure was 0.58 µM.
Turning to `CN(Cc1cc2c(=O)c(C(=O)NCc3ccc(F)cc3)cn(C)c2s1)C[C@@H](O)c1ccccn1` [Example 23, N-(4-Fluorobenzyl)-2-((((2R)-2-hydroxy-2-pyridin-2-ylethyl)(methyl)amino)methyl)-7-methyl-4-oxo-4,7-dihydrothieno[2,3-b]pyridine-5-carboxamide], the half-maximal inhibitory concentration (IC50) against HSV polymerase came out at 0.49 µM; against VZV polymerase, 0.11 µM; on HCMV polymerase (setting [1]), 0.28 µM.
Take `CN(Cc1cc2c(=O)c(C(=O)NCc3ccc(C#N)cc3)cn(C)c2s1)C[C@@H](O)c1ccccn1` [Example 24, N(4-Cyanobenzyl)-2-((((2R)-2-hydroxy-2-pyridin-2-ylethyl)(methyl)amino)methyl)-7-methyl-4-oxo-4,7-dihydrothieno[2,3-b]pyridine-5-carboxamide]: the melting point is 167 to 169 °C. The concentration for half-maximal inhibition (IC50) at HCMV polymerase (setting [1]) stood at 0.23 µM.
With `CN(Cc1cc2c(=O)c(C(=O)NCc3ccc(Br)cc3)cn(C)c2s1)C[C@@H](O)c1ccccn1` [Example 25, N(4-Bromobenzyl)-2-((((2R)-2-hydroxy-2-pyridin-2-ylethyl)(methyl)amino)methyl)-7-methyl-4-oxo-4,7-dihydrothieno[2,3-b]pyridine-5-carboxamide], the melting point is 151 to 153 °C. The half-maximal inhibitory concentration (IC50) at HCMV polymerase (setting [1]) was 0.15 µM.
Regarding “rac-N-(4-Chlorobenzyl)-7-ethyl-2-(((2-hydroxy-2-pyrimidin-2-ylethyl)(methylamino)methyl)-4-oxo-4,7-dihydrothieno[2,3-b]pyridine-5-carboxamide [Example 14]”, the half-inhibitory concentration (IC50) on HCMV polymerase (setting [1]) came out at 1.2 µM.
